Drawing on patent US10449208B2, “Antiviral prodrugs of tenofovir” (Merck Sharp & Dohme Corp., priority 2016, dated 2019), this text covers IC50 for 25 molecules.

The IC50 is the point on the concentration scale where inhibition reaches its midpoint.

The assay deals with HIV-1 (H9/IIIB strain). Put plainly: Multiple round HIV-1 infection assay (Viking assay) in MT4-GFP cells. It is filed as cell-based. To be noted: MT4-GFP cells infected with HIV-1 H9/IIIB, inhibition of reproductive ratio R0. The method, then: Assessing Antiviral Potency in a Multiple Round HIV-1 Infection Assay (Viking Assay)
The antiviral activity of the tenofovir prodrugs of the Examples herein was assessed in an assay that measures the rate of replication of HIV in cell culture, termed the Viking assay (Viral KINetics in Green cells) and performed as follows. HIV-1 replication was monitored using MT4-gag-GFP clone D3 (hereafter designated MT4-GFP), which are MT-4 cells modified to harbor a GFP reporter gene, the expression of which is dependent on the HIV-1 expressed proteins tat and rev. Productive infection of an MT4-GFP cell with HIV-1 results in GFP expression approximately 24 h post-infection. MT4-GFP cells were maintained at 37° C./5% CO2/90% relative humidity in RPMI 1640 supplemented with 10% fetal bovine serum, 100 μ/ml penicillin/streptomycin, and 400 μg/ml G418 to maintain the reporter gene. For infections, MT4-GFP cells were placed in the same medium lacking G418 and infected overnight with HIV-1 (H9/IIIB strain) virus at an approximate multiplicity of infection of 0.01 in the same incubation conditions. Cells were then washed and re-suspended in either RPMI 1640 supplemented with 10% or 50% normal human serum (NFIS) at 1.6×10^5 cells/mL (10% NHS or 50% NHS, respectively). Compound plates were prepared by dispensing compounds dissolved in DMSO into wells of 384 well poly-D -lysine-coated plates (0.2 μl/well) using an ECHO acoustic dispenser. Each compound was tested in a 10-point serial 3-fold dilution (typical final concentrations: 8.4 μM-0.42 nM). Controls included no inhibitor (DMSO only) and a combination of three antiviral agents (efavirenz, indinavir, an in-house integrase strand transfer inhibitor at final concentrations of 4 μM each). Cells were added (50 μL/well) to compound plates and the infected cells were maintained at 37° C./5% CO2/90% relative humidity.
infected cells were quantified at two time points, ˜48 h and ˜72 h post -infection, by counting the number of green cells in each well using an Acumen eX3 scanner. The increase in the number of green cells over ˜24 h period gives the reproductive ratio, R0, which is typically 5-15 and has been shown experimentally to be in logarithmic phase (data not shown). Inhibition of R0 is calculated for each well, and IC50s determined by non-linear 4-parameter curve fitting.

[1] abbreviates: 10% normal human serum, read-out: Viking, IC50 (10% NHS).
Where [2] appears, read: 50% normal human serum, read-out: Viking, IC50 (50% NHS).
Where [3] appears, read: Human immunodeficiency virus 1, IIIB, 10% normal human serum, read-out: Viking, IC50 (10% NHS).
Where [4] appears, read: Human immunodeficiency virus 1, IIIB, 50% normal human serum, read-out: Viking, IC50 (50% NHS).

The structures appear in SMILES notation. Read-outs that look alike come from different tables or passages of the source.

`CC(C)OC(=O)[C@H](C)OP(=O)(CO[C@H](C)Cn1cnc2c(N)ncnc21)NC(C)(C)C(=O)OC1CCC1` (single isomer, unassigned) [Example 16B]: the IC50 is, setting by setting: under setting [1], 4.75 nM; under setting [2], 17.1 nM.

Consider `CC(C)OC(=O)[C@H](C)OP(=O)(CO[C@H](C)Cn1cnc2c(N)ncnc21)NC(C)(C)C(=O)OC1CCCC1` (stereo partly drawn) [Example 39, Cyclopentyl 2-((((((R)-1-(6-amino-9H-purin-9-yl)propan-2-yl)oxy)methyl)(((S)-1-isopropoxy-1-oxopropan-2-yl)oxy)phosphoryl)amino)-2-methylpropanoate], for which the IC50 under setting [3] worked out at 3.43 nM and the IC50 under setting [4] stood at 12.6 nM.

`CC(C)OC(=O)COP(=O)(CO[C@H](C)Cn1cnc2c(N)ncnc21)NC(C)(C)C(=O)OC1CCCC1` (single isomer, unassigned) [Example 14A]: the IC50 was found to be 10 nM under setting [3] and 23.5 nM under setting [4].

For the molecule `CC(C)OC(=O)COP(=O)(CO[C@H](C)Cn1cnc2c(N)ncnc21)NC(C)(C)C(=O)OC1CCCCC1` (single isomer, unassigned) [Example 15B], the IC50 runs as follows: under setting [1], 10.3 nM; under setting [2], 44.2 nM.

On to `CCCCCOC(=O)[C@H](C)OP(=O)(CO[C@H](C)Cn1cnc2c(N)ncnc21)NC(C)(C)C(=O)OC(C)C` (single isomer, unassigned) [Example 10B], for which the IC50 reads like this: under setting [1], 85.6 nM; under setting [2], 357 nM.

On to `CCCCCCOC(=O)C(C)(C)NP(=O)(CO[C@H](C)Cn1cnc2c(N)ncnc21)O[C@@H](C)C(=O)OC1CCCC1` (stereo partly drawn) [Example 34, Hexyl 2-((((((R)-1-(6-amino-9H-purin-9-yl)propan-2-yl)oxy)methyl)(((S)-1-(cyclopentyloxy)-1-oxopropan-2-yl)oxy)phosphoryl)amino)-2-methylpropanoate], for which the half-inhibitory concentration (IC50) is 3.57 nM under setting [3] and 12.9 nM under setting [4].

Regarding `CC(C)OC(=O)[C@H](C)OP(=O)(CO[C@H](C)Cn1cnc2c(N)ncnc21)NC1(C(=O)OC(C)C)CCCCC1` (stereo partly drawn) [Example 52, Isopropyl 1-((((((R)-1-(6-amino-9H-purin-9-yl)propan-2-yl)oxy)methyl)(((S)-1-isopropoxy-1-oxopropan-2-yl)oxy)phosphoryl)amino)cyclo-hexane-1-carboxylate], the IC50 was determined as 10.8 nM under setting [3] and 45.6 nM under setting [4].

With `CCCCOC(=O)C(C)(C)NP(=O)(CO[C@H](C)Cn1cnc2c(N)ncnc21)O[C@@H](C)C(=O)OC1CCCC1` (single isomer, unassigned) [Example 11B], the IC50 is 3.98 nM under setting [1] and 22.8 nM under setting [2].

Turning to `CC(C)OC(=O)COP(=O)(CO[C@H](C)Cn1cnc2c(N)ncnc21)NC(C)(C)C(=O)OC1CCCC1` (single isomer, unassigned) [Example 14B], the IC50 under setting [1] amounted to 5.4 nM and the IC50 under setting [2] is 36.2 nM.

`CC(C)COC(=O)C(C)(C)NP(=O)(CO[C@H](C)Cn1cnc2c(N)ncnc21)OCC(=O)OC(C)C` (stereo partly drawn) [Example 30, Isobutyl 2-((((((R)-1-(6-amino-9H-purin-9-yl)propan-2-yl)oxy)methyl)(2-isopropoxy-2-oxoethoxy)phosphoryl)amino)-2-methylpropanoate]: the IC50 under setting [3] turned out to be 4.38 nM and the IC50 under setting [4] stood at 12 nM.

With `C[C@H](Cn1cnc2c(N)ncnc21)OCP(=O)(NC(C)(C)C(=O)OC1CCCC1)O[C@@H](C)C(=O)OC1CCCC1` (single isomer, unassigned) [Example 5B], the IC50 runs as follows: under setting [1], 5.73 nM; under setting [2], 23.4 nM.

Regarding `CC(C)OC(=O)[C@H](Cc1ccccc1)OP(=O)(CO[C@H](C)Cn1cnc2c(N)ncnc21)NC(C)(C)C(=O)OC(C)C` (stereo partly drawn) [Example 32, Isopropyl 2-((((((R)-1-(6-amino-9H-purin-9-yl)propan-2-yl)oxy)methyl)(((S)-1-isopropoxy-1-oxo-3-phenylpropan-2-yl)oxy)phosphoryl)amino)-2-methylpropanoate], the IC50 under setting [3] came out at 3.34 nM and the IC50 under setting [4] amounted to 23.2 nM.

With `CCCCCOC(=O)[C@H](C)OP(=O)(CO[C@H](C)Cn1cnc2c(N)ncnc21)NC(C)(C)C(=O)OC(C)C` (single isomer, unassigned) [Example 10A], the IC50 by setting is: under setting [1], 26.3 nM; under setting [2], 142 nM.

Take `CC(C)OC(=O)[C@H](C)OP(=O)(CO[C@H](C)Cn1cnc2c(N)ncnc21)NC(C)(C)C(=O)OC1CCC1` (single isomer, unassigned) [Example 16A]: the IC50 under setting [3] stood at 2.61 nM and the IC50 under setting [2] turned out to be 7.5 nM.

Take `CCCCCOC(=O)C(C)(C)NP(=O)(CO[C@H](C)Cn1cnc2c(N)ncnc21)O[C@@H](C)C(=O)OC1CCCC1` (single isomer, unassigned) [Example 19A]: the IC50 under setting [1] amounted to 14 nM and the IC50 under setting [2] was 49.7 nM.

In the case of `CC(C)COC(=O)C(C)(C)NP(=O)(CO[C@H](C)Cn1cnc2c(N)ncnc21)O[C@@H](C)C(=O)OC1CCCC1` (stereo partly drawn) [Example 37, Isobutyl 2-((((((R)-1-(6-amino-9H-purin-9-yl)propan-2-yl)oxy)methyl)(((S)-1-(cyclopentyloxy)-1-oxopropan-2-yl)oxy)phosphoryl)amino)-2-methylpropanoate], the half-inhibitory concentration (IC50) by setting is: under setting [3], 10.3 nM; under setting [4], 63.1 nM.

On to `CCCCOC(=O)C(C)(C)NP(=O)(CO[C@H](C)Cn1cnc2c(N)ncnc21)O[C@@H](C)C(=O)OC1CCCC1` (single isomer, unassigned) [Example 11A], for which the IC50 is, setting by setting: under setting [1], 24.8 nM; under setting [2], 66.2 nM.

In the case of `CC(C)OC(=O)COP(=O)(CO[C@H](C)Cn1cnc2c(N)ncnc21)NC(C)(C)C(=O)OC1CCCCC1` (single isomer, unassigned) [Example 15A], the IC50 is, setting by setting: under setting [3], 9.98 nM; under setting [4], 28.5 nM.

As for `CCCCCCOC(=O)C(C)(C)NP(=O)(CO[C@H](C)Cn1cnc2c(N)ncnc21)O[C@H](C)C(=O)OC(C)C` (single isomer, unassigned) [Example 9A], the IC50 reads like this: under setting [1], 4.2 nM; under setting [2], 26.1 nM.

`CCOC(=O)C(C)(C)NP(=O)(CO[C@H](C)Cn1cnc2c(N)ncnc21)OCC(=O)OC(C)C` (stereo partly drawn) [Example 27, Ethyl 2-((((((R)-1-(6-amino-9H-purin-9-yl)propan-2-yl)oxy)methyl)(2-isopropoxy-2-oxoethoxy)phosphoryl)amino)-2-methylpropanoate]: the IC50 is 10.1 nM under setting [3] and 13.3 nM under setting [4].

Regarding `CCOC(=O)C(C)(C)NP(=O)(CO[C@H](C)Cn1cnc2c(N)ncnc21)O[C@@H](C)C(=O)OC(C)C` (stereo partly drawn) [Example 28, Ethyl 2-((((((R)-1-(6-amino-9H-purin-9-yl)propan-2-yl)oxy)methyl)(((S)-1-isopropoxy-1-oxopropan-2-yl)oxy)phosphoryl)amino)-2-methylpropanoate], the IC50 by setting is: under setting [3], 6.38 nM; under setting [4], 19.7 nM.

On to `CC(C)OC(=O)COP(=O)(CO[C@H](C)Cn1cnc2c(N)ncnc21)NC(C)(C)C(=O)OC1CCC1` (single isomer, unassigned) [Example 17A], for which the IC50 under setting [3] amounted to 6.39 nM and the IC50 under setting [4] worked out at 12.7 nM.

Regarding `CC(C)OC(=O)[C@H](C)OP(=O)(CO[C@H](C)Cn1cnc2c(N)ncnc21)NC1(C(=O)OC(C)C)CCC1` (stereo partly drawn) [Example 50, Isopropyl 1-((((((R)-1-(6-amino-9H-purin-9-yl)propan-2-yl)oxy)methyl)(((S)-1-isopropoxy-1-oxopropan-2-yl)oxy)phosphoryl)amino)cyclo-butane-1-carboxylate], the IC50 by setting is: under setting [3], 8.66 nM; under setting [4], 34.3 nM.

`CCOC(=O)[C@H](C)OP(=O)(CO[C@H](C)Cn1cnc2c(N)ncnc21)NC(C)(C)C(=O)OC(C)C` (stereo partly drawn) [Example 40, Isopropyl 2-((((((R)-1-(6-amino-9H-purin-9-yl)propan-2-yl)oxy)methyl)(((S)-1-ethoxy-1-oxopropan-2-yl)oxy)phosphoryl)amino)-2-methylpropanoate]: the half-maximal inhibitory concentration (IC50) was found to be 19.2 nM under setting [3] and 58.7 nM under setting [4].

On to `CC(C)OC(=O)[C@H](C)OP(=O)(CO[C@H](C)Cn1cnc2c(N)ncnc21)NC(C)(C)C(=O)OC1CCCCC1` (single isomer, unassigned) [Example 12B], for which the IC50 by setting is: under setting [1], 6.07 nM; under setting [2], 13.5 nM.
